Numbers after ± are expanded uncertainties.

A short description of the series: refractive index (Na D-line) (dimensionless). The note with it: 303.15 K; 101.33 kPa; Liquid; Standard Abbe refractometry.
Consider `CCCCC` [pentane], for which the refractive index came to 1.3523 ± 0.0009.
For `O=S1(=O)CCCC1` [sulfolane] the value was 1.4823 ± 0.0009; for `CCC(=O)O` [propanoic acid], 1.3829 ± 0.0009.
With `CC(C)CC(=O)O` [3-methylbutanoic acid], the refractive index was 1.3997 ± 0.0009.
For `CC(C)C(=O)O` [2-methylpropanoic acid] the value was 1.3893 ± 0.0009; for `CC(=O)O` [acetic acid], 1.3716 ± 0.0009.
To `CCCCC(=O)O` [pentanoic acid] belongs 1.4047 ± 0.0009.
For `CCCC(=O)O` [butanoic acid] the value was 1.3947 ± 0.0009.

The record behind these values is the NIST ThermoML archive (doi:10.1016/j.fluid.2015.06.029).
